For orientation: inhibition means the change of the read-out against control, counted positive when it falls. As a reminder, the IC50 is the concentration that inhibits the measured activity by half.

Data set [1] deals with Serine/threonine-protein kinase mTOR (Homo sapiens) (UniProt P42345). Put plainly: Inhibition of mTOR (unknown origin) at 1 uM relative to control.
Data set [2] in a line: Selectivity index, ratio of IC50 for human L02 cells to IC50 for human A549 cells assessed as reduction in cell viability measured after 72 hrs by MTT assay. The conditions noted are these: L02 cells versus A549 cells, read-out: Ratio IC50. The data set is classed as toxicity. (In general: Formazan colour is commonly taken as a measure of viable cells.)
The test system of a further data set is HeLa. Put plainly: Antiproliferation activity against human HeLa cells assessed as reduction in cell viability measured after 72 hrs by MTT assay. It is filed as functional, cell-based.
The species entered for a further data set is Homo sapiens. Put plainly: Inhibition of PI3K (unknown origin) at 1 uM relative to control.
Data set [3] has as its target Hepatocyte growth factor receptor (Homo sapiens) (UniProt P08581). Put plainly: Inhibition of C-MET (unknown origin) at 1 uM relative to control.
In a further data set the test system is MCF7. As to the kind of experiment: Antiproliferation activity against human MCF7 cells assessed as reduction in cell viability measured after 72 hrs by MTT assay. The data set is classed as functional, cell-based. The conditions noted are these: MCF7, 72 h.
Another data set concerns L02. As to the kind of experiment: Cytotoxicity against human L02 cells assessed as reduction in cell viability measured after 72 hrs by MTT assay. The conditions noted are these: L02, 72 h. The data set is classed as cell-based.
The test system of data set [4] is NCI-H1975. As to the kind of experiment: Antiproliferation activity against human NCI-H1975 cells harboring EGFR T790M/L858R mutation assessed as reduction in cell viability measured after 72 hrs by MTT assay. The data set is classed as functional, cell-based. The conditions noted are these: NCI-H1975, 72 h.
In data set [5] the target is Epidermal growth factor receptor (Homo sapiens, UniProt P00533, L858R/T790M). As to the kind of experiment: Inhibition of EGFR T790M/L858R mutant (unknown origin) using FAM-labelled peptide as substrate incubated for 10 mins in presence of ATP by Kinase Glo luminescence assay. A general note: Kinase-Glo reads ATP consumption through a luciferase reaction.
The subject of data set [6] is A549. Put plainly: Antiproliferation activity against human A549 cells assessed as reduction in cell viability measured after 72 hrs by MTT assay. It is filed as functional, cell-based. The conditions noted are these: A549, 72 h.
The target in data set [7] is Epidermal growth factor receptor (Homo sapiens, UniProt P00533). As to the kind of experiment: Inhibition of wild type EGFR (unknown origin) using FAM-labelled peptide as substrate incubated for 10 mins in presence of ATP by Kinase Glo luminescence assay.
Data set [8] concerns the target Epidermal growth factor receptor (Homo sapiens, UniProt P00533, T790M). As to the kind of experiment: Inhibition of EGFR T790M mutant (unknown origin) using FAM-labelled peptide as substrate incubated for 10 mins fin presence of ATP by Kinase Glo luminescence assay.
Data set [9] concerns the target Vascular endothelial growth factor receptor 2 (Homo sapiens) (UniProt P35968). Put plainly: Inhibition of KDR (unknown origin) at 1 uM relative to control.
The subject of data set [10] is A549. Put plainly: Cell cycle arrest in human A549 cells assessed as accumulation at G2/M phase at 5 uM incubated for 48 hrs […] staining based flow cytometric analysis (reference value: 2.67 %). The data set is classed as functional.
Data set [11] relates to A549. Put plainly: Cell cycle arrest in human A549 cells assessed as accumulation at S phase at 5 uM incubated for 48 hrs […] staining based flow cytometric analysis (reference value: 22.64 %). It is filed as functional. A general note: Flow cytometry measures light scatter and fluorescence of single cells or particles in a stream.
Data set [12] concerns NCI-H1975. Put plainly: Induction of apoptosis in human H1975 cells assessed as late apoptotic cells at 5 uM incubated for 48 hrs Annexin V-FITC staining based flow cytometric analysis (reference value: 1.77 %). It is filed as functional.
In data set [13] the test system is A549. Put plainly: Cell cycle arrest in human A549 cells assessed as accumulation at G0/G1 phase at 5 uM incubated for 48 hrs […] staining based flow cytometric analysis (reference value: 74.69 %). The data set is classed as functional.
The subject of data set [14] is NCI-H1975. Put plainly: Induction of apoptosis in human H1975 cells assessed as early apoptotic cells at 5 uM incubated for 48 hrs Annexin V-FITC staining based flow cytometric analysis (reference value: 2.06 %). The data set is classed as functional.
The subject of data set [15] is NCI-H1975. As to the kind of experiment: Induction of apoptosis in human H1975 cells assessed as live cells at 5 uM incubated for 48 hrs Annexin V-FITC staining based flow cytometric analysis (reference value: 96.09 %). The data set is classed as functional.
Data set [16] deals with NCI-H1975. As to the kind of experiment: Induction of apoptosis in human H1975 cells assessed as necrotic cells at 5 uM incubated for 48 hrs Annexin V-FITC staining based flow cytometric analysis (reference value: 0.08 %). It is filed as functional.

Activity calls are given as the source filed them. The calls are words filed in the database; no cut-off is given here. A value given as a limit tells only on which side of the number the result lay.

Sequence of Epidermal growth factor receptor (Homo sapiens, UniProt P00533) (P00533 whole entry): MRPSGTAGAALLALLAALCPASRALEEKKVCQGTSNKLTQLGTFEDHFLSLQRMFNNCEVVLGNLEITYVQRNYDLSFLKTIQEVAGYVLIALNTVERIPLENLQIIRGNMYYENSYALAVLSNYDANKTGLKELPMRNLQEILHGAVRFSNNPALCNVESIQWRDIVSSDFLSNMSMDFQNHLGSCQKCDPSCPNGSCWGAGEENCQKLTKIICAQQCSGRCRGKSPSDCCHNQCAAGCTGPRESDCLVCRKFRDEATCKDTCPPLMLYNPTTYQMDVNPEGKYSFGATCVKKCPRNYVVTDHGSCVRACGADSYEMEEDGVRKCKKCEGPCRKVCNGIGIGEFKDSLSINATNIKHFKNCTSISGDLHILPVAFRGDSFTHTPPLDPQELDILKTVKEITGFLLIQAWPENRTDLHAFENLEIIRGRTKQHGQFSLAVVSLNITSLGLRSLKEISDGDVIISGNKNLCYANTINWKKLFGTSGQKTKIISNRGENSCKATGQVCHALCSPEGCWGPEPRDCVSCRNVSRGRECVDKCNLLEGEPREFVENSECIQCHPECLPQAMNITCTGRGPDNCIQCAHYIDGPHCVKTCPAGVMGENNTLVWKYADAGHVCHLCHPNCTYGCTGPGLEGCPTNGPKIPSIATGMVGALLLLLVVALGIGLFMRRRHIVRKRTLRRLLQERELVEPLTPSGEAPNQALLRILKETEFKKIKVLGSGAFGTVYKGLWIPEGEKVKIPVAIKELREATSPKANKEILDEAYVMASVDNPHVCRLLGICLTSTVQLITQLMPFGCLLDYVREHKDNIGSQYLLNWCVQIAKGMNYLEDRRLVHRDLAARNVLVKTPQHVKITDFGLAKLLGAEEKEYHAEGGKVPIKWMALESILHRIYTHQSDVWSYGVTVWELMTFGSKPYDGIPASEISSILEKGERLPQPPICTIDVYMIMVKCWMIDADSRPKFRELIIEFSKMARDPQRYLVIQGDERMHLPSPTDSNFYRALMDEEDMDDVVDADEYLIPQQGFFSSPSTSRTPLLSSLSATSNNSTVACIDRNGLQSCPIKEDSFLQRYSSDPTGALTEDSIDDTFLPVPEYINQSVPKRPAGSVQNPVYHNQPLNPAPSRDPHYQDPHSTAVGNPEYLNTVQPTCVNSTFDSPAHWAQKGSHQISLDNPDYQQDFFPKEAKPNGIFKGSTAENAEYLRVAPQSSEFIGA
Sequence of Epidermal growth factor receptor (Homo sapiens, UniProt P00533, T790M) (P00533 25-1210 T790M limits assumed): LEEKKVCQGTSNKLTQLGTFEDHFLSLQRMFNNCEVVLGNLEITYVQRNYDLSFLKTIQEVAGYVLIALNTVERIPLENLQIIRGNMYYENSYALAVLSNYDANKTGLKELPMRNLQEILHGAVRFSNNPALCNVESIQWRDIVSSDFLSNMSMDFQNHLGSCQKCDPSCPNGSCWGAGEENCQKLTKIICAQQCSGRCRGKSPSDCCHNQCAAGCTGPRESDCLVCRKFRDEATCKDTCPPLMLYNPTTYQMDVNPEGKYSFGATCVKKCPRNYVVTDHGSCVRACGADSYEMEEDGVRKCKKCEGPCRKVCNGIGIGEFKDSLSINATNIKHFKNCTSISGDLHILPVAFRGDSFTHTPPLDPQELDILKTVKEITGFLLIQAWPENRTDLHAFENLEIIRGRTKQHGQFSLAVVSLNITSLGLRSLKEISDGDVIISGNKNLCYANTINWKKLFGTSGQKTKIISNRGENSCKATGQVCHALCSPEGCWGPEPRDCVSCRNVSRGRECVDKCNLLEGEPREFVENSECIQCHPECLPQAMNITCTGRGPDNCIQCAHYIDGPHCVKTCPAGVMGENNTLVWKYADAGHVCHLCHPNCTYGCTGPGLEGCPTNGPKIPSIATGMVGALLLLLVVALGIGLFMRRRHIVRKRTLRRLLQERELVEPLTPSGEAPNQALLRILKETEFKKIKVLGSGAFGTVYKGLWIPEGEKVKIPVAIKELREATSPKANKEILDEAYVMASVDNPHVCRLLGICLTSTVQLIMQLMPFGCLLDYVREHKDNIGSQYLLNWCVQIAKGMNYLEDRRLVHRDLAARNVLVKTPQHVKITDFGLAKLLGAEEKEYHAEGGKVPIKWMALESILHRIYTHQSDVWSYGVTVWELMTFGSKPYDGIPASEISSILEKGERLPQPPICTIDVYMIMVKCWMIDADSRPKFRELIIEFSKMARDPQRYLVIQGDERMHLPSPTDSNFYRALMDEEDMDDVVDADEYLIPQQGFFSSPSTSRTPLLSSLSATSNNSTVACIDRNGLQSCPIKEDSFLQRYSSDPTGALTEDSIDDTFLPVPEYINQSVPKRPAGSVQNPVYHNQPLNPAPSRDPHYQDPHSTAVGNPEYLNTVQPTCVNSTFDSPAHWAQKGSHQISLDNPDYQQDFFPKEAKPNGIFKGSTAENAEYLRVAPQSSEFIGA
Sequence of Hepatocyte growth factor receptor (Homo sapiens) (P08581 whole entry): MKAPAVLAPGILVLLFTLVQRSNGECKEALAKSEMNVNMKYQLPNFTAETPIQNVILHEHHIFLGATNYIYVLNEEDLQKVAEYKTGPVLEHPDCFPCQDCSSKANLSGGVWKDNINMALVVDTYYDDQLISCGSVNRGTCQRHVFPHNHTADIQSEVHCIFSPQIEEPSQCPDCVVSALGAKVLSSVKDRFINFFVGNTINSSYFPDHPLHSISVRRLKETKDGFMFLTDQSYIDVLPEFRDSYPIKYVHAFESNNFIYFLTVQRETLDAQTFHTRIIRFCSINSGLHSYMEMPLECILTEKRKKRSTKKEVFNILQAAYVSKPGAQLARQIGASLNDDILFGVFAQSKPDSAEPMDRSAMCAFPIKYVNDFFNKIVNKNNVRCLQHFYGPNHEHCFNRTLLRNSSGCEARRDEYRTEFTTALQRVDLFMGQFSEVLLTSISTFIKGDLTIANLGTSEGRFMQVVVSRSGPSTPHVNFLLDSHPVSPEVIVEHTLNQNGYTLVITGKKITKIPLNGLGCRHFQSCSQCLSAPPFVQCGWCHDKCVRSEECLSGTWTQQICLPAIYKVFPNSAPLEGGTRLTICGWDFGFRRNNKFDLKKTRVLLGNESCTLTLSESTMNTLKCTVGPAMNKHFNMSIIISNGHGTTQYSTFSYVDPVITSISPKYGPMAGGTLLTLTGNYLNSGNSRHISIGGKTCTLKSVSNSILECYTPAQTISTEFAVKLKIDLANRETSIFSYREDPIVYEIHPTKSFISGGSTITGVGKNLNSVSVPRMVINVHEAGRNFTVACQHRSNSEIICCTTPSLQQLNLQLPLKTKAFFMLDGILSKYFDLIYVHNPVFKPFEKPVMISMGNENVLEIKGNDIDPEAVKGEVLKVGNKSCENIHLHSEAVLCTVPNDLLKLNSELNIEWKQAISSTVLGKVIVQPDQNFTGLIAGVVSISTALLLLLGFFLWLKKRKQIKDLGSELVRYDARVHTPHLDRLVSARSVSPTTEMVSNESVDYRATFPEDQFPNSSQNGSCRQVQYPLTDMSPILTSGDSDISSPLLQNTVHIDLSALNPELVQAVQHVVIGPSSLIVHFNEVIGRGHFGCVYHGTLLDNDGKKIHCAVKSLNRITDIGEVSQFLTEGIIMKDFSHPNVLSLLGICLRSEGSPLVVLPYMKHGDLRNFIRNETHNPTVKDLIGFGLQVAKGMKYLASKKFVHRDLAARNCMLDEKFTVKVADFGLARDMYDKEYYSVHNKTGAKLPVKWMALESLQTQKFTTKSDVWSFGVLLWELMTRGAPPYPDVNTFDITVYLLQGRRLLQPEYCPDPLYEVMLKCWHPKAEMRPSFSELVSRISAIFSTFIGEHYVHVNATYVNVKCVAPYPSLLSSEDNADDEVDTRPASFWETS
Sequence of Vascular endothelial growth factor receptor 2 (Homo sapiens) (P35968 whole entry): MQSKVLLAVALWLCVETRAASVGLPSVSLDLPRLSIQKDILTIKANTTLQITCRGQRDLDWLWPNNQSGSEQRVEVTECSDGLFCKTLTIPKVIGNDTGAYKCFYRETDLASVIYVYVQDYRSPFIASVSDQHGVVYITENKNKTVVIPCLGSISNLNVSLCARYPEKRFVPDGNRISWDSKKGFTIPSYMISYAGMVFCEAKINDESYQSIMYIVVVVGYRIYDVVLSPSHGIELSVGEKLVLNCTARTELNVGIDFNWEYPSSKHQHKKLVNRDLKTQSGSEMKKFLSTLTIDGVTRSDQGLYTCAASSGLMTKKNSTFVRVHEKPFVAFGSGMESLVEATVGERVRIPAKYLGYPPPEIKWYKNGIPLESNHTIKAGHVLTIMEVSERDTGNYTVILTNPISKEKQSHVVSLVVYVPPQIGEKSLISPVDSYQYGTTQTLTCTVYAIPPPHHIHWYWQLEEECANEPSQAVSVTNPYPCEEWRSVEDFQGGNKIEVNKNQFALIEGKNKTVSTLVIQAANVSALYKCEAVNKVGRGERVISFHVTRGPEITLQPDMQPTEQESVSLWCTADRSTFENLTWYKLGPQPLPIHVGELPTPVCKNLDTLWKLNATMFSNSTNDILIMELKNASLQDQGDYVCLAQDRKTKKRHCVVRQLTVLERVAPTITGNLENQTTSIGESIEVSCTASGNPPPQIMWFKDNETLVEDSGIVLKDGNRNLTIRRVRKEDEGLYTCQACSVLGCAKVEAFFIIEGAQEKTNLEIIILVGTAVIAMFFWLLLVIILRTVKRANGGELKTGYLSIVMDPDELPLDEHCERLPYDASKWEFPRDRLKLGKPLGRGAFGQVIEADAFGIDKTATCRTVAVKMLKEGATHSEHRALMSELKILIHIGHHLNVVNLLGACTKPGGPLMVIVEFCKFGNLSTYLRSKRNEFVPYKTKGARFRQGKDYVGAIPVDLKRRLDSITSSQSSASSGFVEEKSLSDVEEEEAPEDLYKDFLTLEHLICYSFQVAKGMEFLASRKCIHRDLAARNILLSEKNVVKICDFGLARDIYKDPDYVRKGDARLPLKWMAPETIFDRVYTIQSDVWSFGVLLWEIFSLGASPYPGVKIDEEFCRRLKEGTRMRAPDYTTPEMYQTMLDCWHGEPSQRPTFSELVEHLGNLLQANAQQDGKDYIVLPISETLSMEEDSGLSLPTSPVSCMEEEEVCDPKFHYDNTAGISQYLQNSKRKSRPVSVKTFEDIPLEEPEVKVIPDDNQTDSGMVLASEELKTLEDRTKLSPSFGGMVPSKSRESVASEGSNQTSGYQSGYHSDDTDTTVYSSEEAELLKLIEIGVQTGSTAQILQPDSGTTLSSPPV

Take `CCC/C=C/C(=O)Nc1cccc(Oc2nc(Nc3cccc(C#N)c3)nc3c2CSCC3)c1`: the inhibition in data set [1] stood at 10%; in the data set filed under Homo sapiens, 62.2%; in data set [3], 3.6%. The selectivity ratio at 72 h in [2] is over 8.64. Also, the half-inhibitory concentration (IC50) was 7.22 µM with HeLa; 15.3 µM with MCF7; over 50 µM in the data set with L02; 10.8 µM in the data set with NCI-H1975 [4]; over 1 µM in [5]; 5.79 µM with A549 [6]. Besides, the IC50 in data set [7] and in data set [8] was over 1 µM throughout.

As for `C/C=C/C(=O)Nc1cccc(Oc2nc(Nc3ccc(OC)nc3)nc3c2CSCC3)c1`, in data set [2], the selectivity ratio at 72 h was over 6.22. Further, the half-inhibitory concentration (IC50) with HeLa was 16.5 µM; in the data set with MCF7, 21.1 µM; in the data set with L02 it was over 50 µM; with NCI-H1975 [4], 13.9 µM; in the data set on A549 [6], 8.04 µM; in data set [7] it was over 1 µM. Moreover, in [8], the concentration for half-maximal inhibition (IC50) was over 1 µM.

`C=CC(=O)Nc1cccc(Oc2nc(Nc3cccc(C#N)c3)nc3c2CSCC3)c1`: the selectivity ratio at 72 h in data set [2] is over 7.29. Besides, the concentration for half-maximal inhibition (IC50) is 34.9 µM in the data set on HeLa; 21.7 µM in the data set on MCF7; over 50 µM in the data set on L02; 4.59 µM with NCI-H1975 [4]; over 1 µM in data set [5]; 6.86 µM with A549 [6]. Besides, the IC50 in data set [7] and in data set [8] was over 1 µM each time. The inhibition in the data set listed under Homo sapiens is 44.3%; in data set [3], 2.4%; in data set [9], -0.9%.

As for `C=CC(=O)Nc1cccc(Oc2nc(Nc3ccc(N4CCN(C)CC4)cc3)nc3ccsc23)c1` [OLMUTINIB], the inhibition result (in [1]; in the data set filed under Homo sapiens; in [9]) was “inactive” throughout. Also, the inhibition in data set [3] worked out at 7.1%. Besides, the Activity in the data set with A549 [10] stood at 8.72%; with A549 [11] it was 14.65%; in the data set with NCI-H1975 [12] it was 10.76%; in the data set on A549 [13], 76.63%; with NCI-H1975 [14], 4.63%; with NCI-H1975 [15], 84.27%. Moreover, the Activity with NCI-H1975 [16] was 0.34%.

Regarding `CCC/C=C/C(=O)Nc1cccc(Oc2nc(Nc3ccn(C)n3)nc3c2CSCC3)c1`, the selectivity ratio at 72 h in data set [2] is over 6.1. The IC50 is 17 µM in the data set with HeLa; 22.6 µM with MCF7; over 50 µM in the data set on L02; 13.6 µM in the data set with NCI-H1975 [4]; 8.19 µM with A549 [6]; over 1 µM in [7]. Further, the IC50 in data set [8] was over 1 µM.

The record behind these values is ChEMBL document CHEMBL4725402, “Discovery of thiapyran-pyrimidine derivatives as potential EGFR inhibitors” (Bioorg Med Chem, 2020).
